Test results published in patent US9394307B2, “Fused heteroaryl pyridyl and phenyl benzenesuflonamides as CCR2 modulators for the treatment of inflammation” (ChemoCentryx, Inc., priority 2007, dated 2016).
“And” between values parts separate entries of the source, which are not always exact repeats. Equal entries are not always repeated. Where two headings read alike, the source gives them in different places. Blank lines part the entries; values can stand above or below the compound they belong to.

Assays:
CYP2C9 = CYP2C9 (Homo sapiens (Human), UniProt P11712); assay: CYP2C9 inhibition assay in pooled human liver microsomes; type: in vitro ADME; conditions: NADPH, 37° C., diclofenac substrate, read-out: CYP 2C9 Inhibition IC50
CYP2C9, sequence (P11712 whole entry): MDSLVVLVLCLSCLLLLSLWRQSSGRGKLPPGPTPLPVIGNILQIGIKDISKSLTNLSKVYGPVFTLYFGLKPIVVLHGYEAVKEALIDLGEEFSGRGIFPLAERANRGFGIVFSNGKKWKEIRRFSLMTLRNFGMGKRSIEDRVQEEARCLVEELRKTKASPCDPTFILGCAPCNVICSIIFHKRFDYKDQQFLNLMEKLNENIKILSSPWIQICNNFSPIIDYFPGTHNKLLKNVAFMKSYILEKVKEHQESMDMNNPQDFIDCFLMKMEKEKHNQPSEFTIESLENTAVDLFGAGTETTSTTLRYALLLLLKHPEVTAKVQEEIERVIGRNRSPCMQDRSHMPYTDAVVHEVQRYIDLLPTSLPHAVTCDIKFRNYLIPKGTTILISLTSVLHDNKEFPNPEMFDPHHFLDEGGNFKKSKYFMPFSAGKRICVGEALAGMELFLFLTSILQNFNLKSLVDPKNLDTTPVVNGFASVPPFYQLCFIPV
Procedure: (§1) The test compounds were incubated with pooled human liver microsomes at 37° C. in the presence of NADPH and appropriate concentrations of substrates specific for CYP2C9 and 3A4. The final assay concentrations of human liver microsomes and substrates, the initial substrate stock solution concentrations in DMSO, and the times used for the various isozyme incubations are summarized in Table 4.
120 μL of a mixture of human liver microsomes (HLM) in 50 mM potassium phosphate/5 mM MgCl2 buffer was added into all wells of row A in a 96-well plate. The concentration of microsomal protein was 2-fold the intended protein concentration for the particular isozyme assay recorded in Table 4. In addition, 80 μL of this human liver microsome preparation spiked with 1% DMSO was dispensed into all wells of rows B through H. […]
(§2) Samples were analyzed by the LC-MS/MS method. Each metabolite (Table 6) derived from the particular substrate for each different CYP450 isoform was monitored. […]
(§3) AUCtest, AUCcontrol and AUCblank are the peak area count for the metabolite of the control in the presence of test article or positive inhibitor, the peak area count of metabolite of the control without test article, and peak area count observed in the microsome blank, respectively. […] The IC50 values were calculated using a 4-parameter fit in XLFit™ (IDBS Lid, Guildford, UK).

[1] = Intravenous/oral pharmacokinetic study in Sprague-Dawley rats; type: in vivo; conditions: rat, plasma, male Sprague-Dawley rats; for MRT: read-out: Rat PK MRT (converted); for half-life: read-out: Rat PK T1/2
Procedure: An intravenous/oral pharmacokinetic study with the selected compounds was conducted in male Sprague-Dawley rats weighing between 0.24 and 0.36 kg. Blood samples were collected at predetermined time points and the corresponding plasma samples from the animals were analyzed for test compound concentrations using an LC-MS/MS method. The pharmacokinetic parameters were derived from the plasma concentration versus time curve.
Eight animals weighing between 0.24 and 0.36 kg were used for this study. Two animals were used for the i.v. dosing, whereas the later six were for oral dosing.
For i.v. dosing, a solution formulation of test compound was prepared in propylene glycol/N,N-dimethyl acetamide/EtOH (31.6/31.6/36.8) at 1 mg/mL and each animal received 1 mL/kg. For oral dosing, a the test compounds were suspended in 1% HPMC at 0.5 mg/mL and each animal received 10 mL/kg.
Animals were fasted overnight and examined prior to dosing and at the conclusion of the study. For intravenous dosing, blood (0.2 mL) was drawn at pre-dose and at 2, 5, 10, 15, and 30 minutes, 1, 2, 4, 6, and 8 hours post-dose. For oral dosing, blood (0.2 mL) was drawn at pre-dose and at 5, 15, and 30 minutes, 1, 1.5, 2, 4, 6, 8, and 24 hours post-dose. Blood was sampled from canulated animals and then placed into chilled polypropylene tubes containing sodium EDTA as the anticoagulant and kept on ice until centrifugation. Plasma was collected through centrifugation (Eppendorf Centriguge 5417R) at 12000 rpm and 4° C. for 6 minutes and stored at −20° C. until analysis.
Plasma samples (50 μL) were extracted with 150 μL acetonitrile containing the internal standard on a linear shaker for 10 min. The samples were centrifuged at 4450 RPM for 10 min at 4° C. (Allegra X-15R centrifuge, Beckman Coulter, Inc., Fullerton, Calif.). 80 μL of the resultant supernatant was transferred into new plate wells containing 80 μL 0.1% formic acid in water and thoroughly mixed.
Extracted samples prepared using the above procedure were separated by high-performance liquid chromatography using a Shimadzu (Kyoto, Japan) system equipped with two LC-10 AD pumps and a C-18 column (Waters Sunfire, 2×30 mm, 3.5 μm; 10 μl injection) using a mobile phase consisting of (A) 0.1% formic acid in water and (B) 0.1% formic acid in acetonitrile, at a flow rate of 0.35 mL/min. The gradient was 0-1.5 min 5% B, 1.5-2.5 min 5-95% B, 2.5-2.7 min 95% to 5% B, and 2.7-4.0 min 5% B. The HPLC elute was routed into an Applied Biosystems (Foster City, Calif.) Sciex API 3000 triple quadrupole mass spectrometer, operating in the Turbo Ionspray positive ionization MS/MS mode for analysis. Acquisition and integration were performed with Applied Biosystems-Sciex Analyst software (version 1.4.1). The calibration curve was obtained through a quadratic (i.v.) or linear (p.o.) regression and the calibration range was 4-5000 ng/mL and 2-5000 ng/mL for the i.v. and p.o. studies, respectively.
A total of eleven time points were obtained for each dosing route during the blood collection period. Descriptive pharmacokinetic parameters were determined from the plasma concentration-time curve by a standard non-compartmental analysis (Wagner, 1993) from each animal and dose route. • Half-life (T1/2): Terminal half-life. • Cmax: Maximum plasma concentration • AUC0-∞: Area under the plasma concentration-time curve from time of dosing extrapolated to infinity. • CL: Total body clearance. • MRT0-∞: Mean residence time from the time of dosing extrapolated to infinity • Vdss: Volume of distribution at steady state. • F: Bioavailability.
Pharmacokinetic analysis was performed by using XLFit® v.4.1 (ID Business Solutions Inc., Alameda, Calif.).

CCR2 = CCR2 (Homo sapiens (Human), UniProt P41597); assay: CCR2 chemotaxis assay (conventional migration assay, THP-1 cells, MCP-1); type: cell-based
CCR2, sequence (P41597 other isoform, or with tags, fused parts or gaps isoform P41597-2): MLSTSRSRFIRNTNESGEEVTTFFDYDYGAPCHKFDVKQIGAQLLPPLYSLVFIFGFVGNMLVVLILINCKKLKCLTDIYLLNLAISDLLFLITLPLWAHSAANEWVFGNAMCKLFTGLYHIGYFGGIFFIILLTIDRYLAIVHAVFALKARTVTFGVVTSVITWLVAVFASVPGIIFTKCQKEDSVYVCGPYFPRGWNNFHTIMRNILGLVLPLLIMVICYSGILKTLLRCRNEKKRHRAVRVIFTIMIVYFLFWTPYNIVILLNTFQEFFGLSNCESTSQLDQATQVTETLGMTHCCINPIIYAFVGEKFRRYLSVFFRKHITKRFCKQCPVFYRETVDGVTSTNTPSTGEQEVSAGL

in vivo = conditions: male, beagle, dog, plasma
[2] = Pharmacokinetics and oral bioavailability in the beagle dog; conditions: male beagle dog, oral 5 mg/kg vs i.v. 1 mg/kg
CYP3A4 = CYP3A4 (Homo sapiens (Human), UniProt P08684); assay: CYP3A4 inhibition assay in pooled human liver microsomes; type: in vitro ADME; conditions: NADPH, 37° C., read-out: CYP 3A4 Inhibition IC50
CYP3A4, sequence (P08684 whole entry): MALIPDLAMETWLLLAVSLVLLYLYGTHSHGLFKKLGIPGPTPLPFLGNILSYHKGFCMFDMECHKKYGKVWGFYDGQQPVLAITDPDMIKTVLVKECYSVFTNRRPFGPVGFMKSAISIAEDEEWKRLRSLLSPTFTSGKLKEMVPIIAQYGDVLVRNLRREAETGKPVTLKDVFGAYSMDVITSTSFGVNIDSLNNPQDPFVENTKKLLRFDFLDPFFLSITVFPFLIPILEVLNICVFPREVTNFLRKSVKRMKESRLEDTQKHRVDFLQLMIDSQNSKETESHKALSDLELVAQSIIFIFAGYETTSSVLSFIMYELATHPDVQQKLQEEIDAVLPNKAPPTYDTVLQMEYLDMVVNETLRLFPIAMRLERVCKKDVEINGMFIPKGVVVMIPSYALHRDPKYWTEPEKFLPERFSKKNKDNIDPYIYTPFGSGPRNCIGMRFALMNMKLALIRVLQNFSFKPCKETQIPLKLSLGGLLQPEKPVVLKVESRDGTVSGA
Procedure: as §1
120 μL of a mixture of human liver microsomes (HLM) in 50 mM potassium phosphate/5 mM MgCl2 buffer was added into all wells of row A in a 96-well plate. The concentration of microsomal protein was 2-fold the intended protein concentration for the particular isozyme assay recorded in Table 4. In addition, 80 μL of this human liver microsome preparation spiked with 1% DMSO was dispensed into all wells of rows B through H.
1.2 μL of each individual test compound in DMSO (10 mM) was added to the first 10 wells of row A (5 different test compounds each in duplicate). Additionally, 1.2 μL of the DMSO stock of the control inhibitor for the isozyme under study was added into the final two wells of row A to give a concentration two-fold above the highest final concentration. (See Table 5 for the final control inhibitor concentrations)
This process was repeated for rows D through G. After mixing, 40 μL was removed and discarded from the wells of row G.
The plate was covered and pre-incubated for 10 minutes in a 37° C. incubator. […]
as §2, §3

[3] = THP-1 cells, 0.1 nM MCP-1, read-out: IC50 in the CCR2 chemotaxis assay

- IC50 (CYP2C9): 3 µM
- MRT [1]: 0.35 h
- half-life [1]: 0.7 h
Compound: O=C(C1=CC=NC2NC=CC12)c1ncc(Cl)cc1NS(=O)(=O)c1ccc(Cl)c(C(F)(F)F)c1 (stereo not shown)

Compound: Cc1cnc(C(=O)c2ncnc3[nH]ccc23)c(NS(=O)(=O)c2ccc(Cl)c(C(F)(F)F)c2)c1 [Compound 5, 4-Chloro-N-[5-methyl-2-(7H-pyrrolo[2,3-d]pyrimidine-4-carbonyl)-pyridin-3-yl]-3-trifluoromethyl-benzenesulfonamide]
- IC50 (CCR2): ~0.005 µM
- MRT (in vivo; iv, 1 mg/kg): 7.2 h
- Vd (in vivo; iv, 1 mg/kg): 0.1 L/kg
- clearance (in vivo; iv, 1 mg/kg): 0.2 mL/min/kg
- half-life (in vivo; iv, 1 mg/kg): 4.7 h
- bioavailability (in vivo; oral, 5 mg/kg): ~100%
- Cmax (in vivo; po, 5 mg/kg): 44400 ng/mL and ~59.5 µM
- Tmax (in vivo; po, 5 mg/kg): 1.5 h
- oral bioavailability [2]: about 100%

- IC50 (CCR2; [3]): < 1 µM
Compound: O=C(c1ncc(Cl)cc1NS(=O)(=O)c1ccc(Cl)c(C(F)(F)F)c1)c1cncc2[nH]ccc12 [Compound 11, 4-Chloro-N-[5-chloro-2-(1H-pyrrolo[2,3-c]pyridine-4-carbonyl)-pyridin-3-yl]-3-trifluoromethyl-benzenesulfonamide]

- IC50 (CYP2C9): 15 µM
- MRT [1]: 1.13 h
- half-life [1]: 2.12 h
Compound: O=C(c1ncc(Cl)cc1NS(=O)(=O)c1ccc(Cl)c(C(F)(F)F)c1)c1ncnc2[nH]ccc12

- IC50 (CYP3A4): 3 µM
- MRT [1]: 0.367 h
- half-life [1]: 0.317 h
Compound: COC1=C(C(=O)c2ncc(C)cc2NS(=O)(=O)c2ccc(Cl)c(C(F)(F)F)c2)C2C=CNC2N=C1 (stereo not shown)

- IC50 (CYP3A4): 3 µM
- MRT [1]: 0.583 h
Compound: Cc1cnc(C(=O)c2ccnc3[nH]ncc23)c(NS(=O)(=O)c2ccc(Cl)c(C(F)(F)F)c2)c1

Compound: Cc1cnc(C(=O)c2ncnc3[nH]ccc23)c(NS(=O)(=O)c2ccc(Cl)c(C(F)(F)F)c2)c1 [drawing 78]
- half-life [1]: 2.68 h

- IC50 (CCR2; [3]): < 1 µM
Compound: Cc1cnc(C(=O)c2cncc3[nH]ccc23)c(NS(=O)(=O)c2ccc(Cl)c(Cl)c2)c1 [Compound 12, 3,4-Dichloro-N-[5-methyl-2-(1H-pyrrolo[2,3-c]pyridine-4-carbonyl)-pyridin-3-yl]-benzenesulfonamide]

Compound: Cc1cnc(C(=O)c2ncnc3[nH]ccc23)c(NS(=O)(=O)c2ccc(Cl)c(C(F)(F)F)c2)c1 [drawing 76]
- IC50 (CYP3A4): 20 µM
- MRT [1]: 2.25 h
